Literature values, collected in patent publication US20020009704A1, “Oocyte vitrification technique” (priority 2000, published 2002).

System: bovine oocytes

OCCO [ethylene glycol]
toxicity for bovine oocytes: relatively low toxicity
